What all share (type): biochemical
Holding throughout (details): for inhibition at 0.1 µM: compound at 100 nM, [ATP] = Km

In assay [1] the target is T1, EGFR (ErbB1) (Homo sapiens, UniProt P00533).
T1 construct: purchased Invitrogen
The assay is described as follows: Z'-LYTE kinase inhibition assay (Invitrogen), EGFR. How it is done: (§1) Inhibitory activities of compounds against BTK, EGFR and EGFR mutants (EGFR L858R/T790M) were measured by Invitrogen using Z′-LYTE® Method as briefly described in the following.
(§2) Test Compounds are screened in 1% DMSO (final) in the well. For 10 point titrations, 3-fold serial dilutions are conducted from the starting concentration. All ATP Solutions are diluted to a 4× working concentration in Kinase Buffer (50 mM HEPES pH 7.5, 0.01% BRIJ-35, 10 mM MgCl2, 1 mM EGTA). Peptide/Kinase Mixtures are diluted to a 2× working concentration in the appropriate Kinase Buffers as described below.
(i) Peptide/Kinase Mixtures for measurement of EGFR (ErbB1):
The 2×EGFR (ErbB1)/Tyr 04 mixture is prepared in 50 mM HEPES pH 7.5, 0.01% BRIJ-35, 10 mM MgCl2, 4 mM MnCl2, 1 mM EGTA, 2 mMDTT. The final 10 μL Kinase Reaction consists of 1.1-5.25 ng EGFR (ErbB1) and 2 μM Tyr 04 in 50 mM HEPES pH 7.5, 0.01% BRIJ-35, 10 mM MgCl2, 2 mM MnCl2, 1 mM EGTA, 1 mM DTT. After the 1 hour Kinase Reaction incubation, 5 μL of a 1:64 dilution of DevelopmentReagent B is added.
(§3) Reaction starts by 30-second shaking of mixture consisting of 2.5 μL 4× test compound, 5 μL 2× kinase reaction mixture and 2.5 μL 4×ATP Solution on Bar-coded Corning, low volume NBS, black 384-well plate (Corning Cat. #3676). Then the mixture is incubated for 60-minute at room temperature for the kinase reaction, followed by addition of 5 μL of a 1:1024 dilution of development reagent A and 30-second plate shake. The mixture is then incubated for another 60-minute at room temperature for development reaction. Finally fluorescence is read by plate reader. […] The scale utilized in Tables 2 and 3 is as follows: ++ more than 50% inhibition and + less than 50% inhibition.
(§4) To determine IC50 of a compound against EGFR or EGFR mutants, a series of concentrations of the compound were tested for the inhibition. IC50 was calculated by plotting the concentration of compound vs the percentage of inhibition in treated wells using GraphPad Prism 5. […] The scale utilized in Table 4 is as follows: ++ less than 100 nM and + greater than 100 nM.

The target in assay [2] is T2, EGFR (ErbB1) T790M L858R (Homo sapiens, UniProt P00533, L858R/T790M).
T2 construct: purchased Invitrogen
Kind of assay: Z'-LYTE kinase inhibition assay (Invitrogen), EGFR L858R/T790M. How it is done: as §1, §2
(iv) Peptide/Kinase Mixtures for measurement of EGFR (ErbB1) T790M L858R:
The 2×EGFR (ErbB1) T790M L858R/Tyr 04 mixture is prepared in 50 mM HEPES pH 6.5, 0.01% BRIJ-35, 10 mM MgCl2, 1 mM EGTA, 0.02% NaN3. The final 10 μL Kinase Reaction consists of 0.38-4.22 ng EGFR (ErbB1) T790M L858R and 2 μM Tyr 04 in 50 mM HEPES pH 7.0, 0.01% BRIJ-35, 10 mM MgCl2, 1 mM EGTA, 0.01% NaN3. After the 1 hour Kinase Reaction incubation, 5 μL of a 1:64 dilution of Development Reagent B is added.
as §3, §4

The target in assay [3] is T3, BTK (Homo sapiens, UniProt Q06187).
T3 construct: purchased Invitrogen
The assay is described as follows: Z'-LYTE kinase inhibition assay (Invitrogen), BTK. How it is done: as §1, §2
(v) Peptide/Kinase Mixtures for measurement of BTK:
The 2×BTK/Tyr 01 mixture is prepared in 50 mM HEPES pH 7.5, 0.01% BRIJ-35, 10 mM MgCl2, 1 mM EGTA. The final 10 μL Kinase Reaction consists of 1.04-10.4 ng BTK and 2 μM Tyr 01 in 50 mM HEPES pH 7.5, 0.01% BRIJ-35, 10 mM MgCl2, 1 mM EGTA. After the 1 hour Kinase Reaction incubation, 5 μL of a 1:256 dilution of Development Reagent B is added.
as §3, §4

Molecules are shown by their SMILES. A value given as a limit tells only on which side of the number the result lay.

T3 sequence (Q06187 whole entry): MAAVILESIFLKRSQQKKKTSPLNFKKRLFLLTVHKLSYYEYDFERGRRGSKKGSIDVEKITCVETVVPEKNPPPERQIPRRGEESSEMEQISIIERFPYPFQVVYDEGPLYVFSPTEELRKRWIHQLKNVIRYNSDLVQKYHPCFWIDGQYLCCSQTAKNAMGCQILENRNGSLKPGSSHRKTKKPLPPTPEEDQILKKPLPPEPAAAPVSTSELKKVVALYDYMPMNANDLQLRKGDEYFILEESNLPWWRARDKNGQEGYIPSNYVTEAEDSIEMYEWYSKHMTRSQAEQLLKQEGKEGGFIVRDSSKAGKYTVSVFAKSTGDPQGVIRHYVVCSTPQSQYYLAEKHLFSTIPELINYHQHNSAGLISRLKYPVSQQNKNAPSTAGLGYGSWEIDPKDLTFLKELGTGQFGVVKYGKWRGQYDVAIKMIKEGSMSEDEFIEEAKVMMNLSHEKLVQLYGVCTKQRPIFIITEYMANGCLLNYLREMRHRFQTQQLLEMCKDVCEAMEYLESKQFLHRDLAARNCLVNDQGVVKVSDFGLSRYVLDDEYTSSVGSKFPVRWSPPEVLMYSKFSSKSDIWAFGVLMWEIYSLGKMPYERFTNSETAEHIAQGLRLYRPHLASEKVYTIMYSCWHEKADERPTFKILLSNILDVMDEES
T2 sequence (P00533 25-1210 T790M/L858R): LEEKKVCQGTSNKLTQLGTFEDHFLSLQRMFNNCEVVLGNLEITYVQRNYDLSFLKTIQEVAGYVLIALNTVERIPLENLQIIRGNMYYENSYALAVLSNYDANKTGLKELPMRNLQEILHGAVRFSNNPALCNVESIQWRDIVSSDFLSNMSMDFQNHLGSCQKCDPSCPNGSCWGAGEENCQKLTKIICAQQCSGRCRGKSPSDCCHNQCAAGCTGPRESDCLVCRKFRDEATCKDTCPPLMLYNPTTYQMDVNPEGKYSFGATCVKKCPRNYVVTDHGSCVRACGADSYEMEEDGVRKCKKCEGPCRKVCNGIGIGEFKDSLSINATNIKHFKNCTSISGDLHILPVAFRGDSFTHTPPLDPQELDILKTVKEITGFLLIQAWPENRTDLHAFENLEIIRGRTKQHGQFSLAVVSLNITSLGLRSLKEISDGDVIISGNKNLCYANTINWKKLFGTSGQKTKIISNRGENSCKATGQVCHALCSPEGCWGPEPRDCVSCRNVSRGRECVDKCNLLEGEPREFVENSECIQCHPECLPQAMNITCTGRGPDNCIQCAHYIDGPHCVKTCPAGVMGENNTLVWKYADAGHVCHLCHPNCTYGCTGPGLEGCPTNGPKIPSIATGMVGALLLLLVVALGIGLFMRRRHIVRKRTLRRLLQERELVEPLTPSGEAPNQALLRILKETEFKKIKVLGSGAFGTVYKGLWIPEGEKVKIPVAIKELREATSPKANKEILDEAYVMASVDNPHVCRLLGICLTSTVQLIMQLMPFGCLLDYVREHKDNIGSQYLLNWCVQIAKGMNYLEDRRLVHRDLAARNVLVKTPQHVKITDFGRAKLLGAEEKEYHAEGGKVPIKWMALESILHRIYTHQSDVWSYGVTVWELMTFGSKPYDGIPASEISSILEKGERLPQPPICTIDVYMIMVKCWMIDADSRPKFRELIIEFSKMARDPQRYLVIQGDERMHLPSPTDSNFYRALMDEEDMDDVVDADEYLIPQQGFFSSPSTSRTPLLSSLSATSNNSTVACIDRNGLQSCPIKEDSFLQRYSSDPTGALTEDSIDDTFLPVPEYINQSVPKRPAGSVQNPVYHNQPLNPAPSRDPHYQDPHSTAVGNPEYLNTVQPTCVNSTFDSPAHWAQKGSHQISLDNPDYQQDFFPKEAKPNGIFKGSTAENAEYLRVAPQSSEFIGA
T1 sequence (P00533 25-1210): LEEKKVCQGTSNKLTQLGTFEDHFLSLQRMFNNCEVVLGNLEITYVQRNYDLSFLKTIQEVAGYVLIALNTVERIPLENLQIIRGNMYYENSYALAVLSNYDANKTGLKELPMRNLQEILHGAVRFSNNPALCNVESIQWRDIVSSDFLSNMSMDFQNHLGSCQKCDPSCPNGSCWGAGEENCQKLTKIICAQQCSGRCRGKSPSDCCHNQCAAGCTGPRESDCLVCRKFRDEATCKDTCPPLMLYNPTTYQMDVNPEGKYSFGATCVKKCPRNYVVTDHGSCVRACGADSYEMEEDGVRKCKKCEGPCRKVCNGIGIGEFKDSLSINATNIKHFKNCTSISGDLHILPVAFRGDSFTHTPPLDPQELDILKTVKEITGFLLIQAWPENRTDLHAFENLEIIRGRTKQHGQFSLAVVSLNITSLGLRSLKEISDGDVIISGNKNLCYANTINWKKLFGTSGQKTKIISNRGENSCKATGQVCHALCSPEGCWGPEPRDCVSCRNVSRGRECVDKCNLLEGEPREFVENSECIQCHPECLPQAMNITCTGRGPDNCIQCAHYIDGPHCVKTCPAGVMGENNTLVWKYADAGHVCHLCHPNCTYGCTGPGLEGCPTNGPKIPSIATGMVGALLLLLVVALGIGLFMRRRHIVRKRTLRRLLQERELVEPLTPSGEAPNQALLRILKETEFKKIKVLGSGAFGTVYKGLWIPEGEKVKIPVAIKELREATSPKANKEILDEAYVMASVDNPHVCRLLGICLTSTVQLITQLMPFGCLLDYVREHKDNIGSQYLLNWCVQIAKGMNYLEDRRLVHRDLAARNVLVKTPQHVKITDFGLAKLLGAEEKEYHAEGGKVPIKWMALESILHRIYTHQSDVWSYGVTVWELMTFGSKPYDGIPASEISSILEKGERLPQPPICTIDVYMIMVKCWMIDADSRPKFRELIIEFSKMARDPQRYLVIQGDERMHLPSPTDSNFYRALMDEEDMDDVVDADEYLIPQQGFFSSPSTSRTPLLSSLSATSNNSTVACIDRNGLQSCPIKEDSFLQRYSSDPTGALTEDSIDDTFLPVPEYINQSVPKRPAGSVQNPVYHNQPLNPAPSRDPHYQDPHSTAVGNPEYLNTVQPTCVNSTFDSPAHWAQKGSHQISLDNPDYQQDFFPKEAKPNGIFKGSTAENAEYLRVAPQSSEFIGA

Regarding `C=CC(=O)N1CCC(n2cnc3cnc(Nc4ccc(N5CCN(C)CC5)cc4F)nc32)C1` (stereo not shown) [Example A017, 1-(3-(2-((2-fluoro-4-(4-methylpiperazin-1-yl)phenyl)amino)-9H-purin-9-yl)pyrrolidin-1-yl)prop-2-en-1-one], the inhibition at 0.1 µM in assay [1], in assay [2] and in assay [3] was less than 50% in each case.
As for `C=CC(=O)Nc1cccc(-n2cnc3cnc(Nc4ccc(N5CCN(CCO)CC5)c(F)c4F)nc32)c1` [Example A014, N-(3-(2-((2,3-difluoro-4-(4-(2-hydroxyethyl)piperazin-1-yl)phenyl)amino)-9H-purin-9-yl)phenyl)acrylamide], the inhibition at 0.1 µM in assay [1], in assay [2] and in assay [3] was less than 50% in each case.
Take `C=CC(=O)N1CCCC(n2cnc3cnc(Nc4ccc(N5CCN(CCO)CC5)c(F)c4F)nc32)C1` (stereo not shown) [Example A024, 1-(3-(2-((2,3-difluoro-4-(4-(2-hydroxyethyl)piperazin-1-yl)phenyl)amino)-9H-purin-9-yl)piperidin-1-yl)prop-2-en-1-one]: the inhibition at 0.1 µM in assay [1], in assay [2] and in assay [3] was less than 50% each time.
Consider `C=CC(=O)N1CCCC(n2cnc3cnc(Nc4ccc(N5CCN(C)CC5)cc4F)nc32)C1` (stereo not shown) [Example A018, 1-(3-(2-((2-fluoro-4-(4-methylpiperazin-1-yl)phenyl)amino)-9H-purin-9-yl)piperidin-1-yl)prop-2-en-1-one], for which the inhibition at 0.1 µM in assay [1], in assay [2] and in assay [3] was less than 50% each time.
`C=CC(=O)N1CCCC(n2cnc3cnc(Nc4ccc(N5CCN(CCO)CC5)cc4F)nc32)C1` (stereo not shown) [Example A016, 1-(3-(2-((2-fluoro-4-(4-(2-hydroxyethyl)piperazin-1-yl)phenyl)amino)-9H-purin-9-yl)piperidin-1-yl)prop-2-en-1-one]: the inhibition at 0.1 µM in assay [1], in assay [2] and in assay [3] was less than 50% throughout.
Consider `C=CC(=O)Nc1cccc(-n2cnc3cnc(Nc4ccc(N5CCN(C)CC5)c(F)c4F)nc32)c1` [Example A019, N-(3-(2-((2,3-difluoro-4-(4-methylpiperazin-1-yl)phenyl)amino)-9H-purin-9-yl)phenyl)acrylamide], for which the inhibition at 0.1 µM in assay [1], in assay [2] and in assay [3] was less than 50% throughout.
As to `C=CC(=O)N1CCC(n2cnc3cnc(Nc4ccc(N5CCN(CCO)CC5)cc4F)nc32)C1` (stereo not shown) [Example A008, 1-(3-(2-((2-fluoro-4-(4-(2-hydroxyethyl)piperazin-1-yl)phenyl)amino)-9H-purin-9-yl)pyrrolidin-1-yl)prop-2-en-1-one], the inhibition at 0.1 µM in assay [3] is less than 50%.
For the compound `C=CC(=O)N1CCCC(n2cnc3cnc(Nc4ccc(N5CCN(CCO)CC5)cc4)nc32)C1` (stereo not shown) [Example A013, 1-(3-(2-((4-(4-(2-hydroxyethyl)piperazin-1-yl)phenyl)amino)-9H-purin-9-yl)piperidin-1-yl)prop-2-en-1-one], the inhibition at 0.1 µM in assay [1] was less than 50%; in assay [2] it was less than 50%; in assay [3] it was greater than 50%.
In the case of `C=CC(=O)N1CCC(n2cnc3cnc(Nc4ccc(N5CCN(CCO)CC5)c(F)c4)nc32)C1` (stereo not shown) [Example A007, 1-(3-(2-((3-fluoro-4-(4-(2-hydroxyethyl)piperazin-1-yl)phenyl)amino)-9H-purin-9-yl)pyrrolidin-1-yl)prop-2-en-1-one], the inhibition at 0.1 µM in assay [3] is greater than 50%.
Take `C=CC(=O)N1CCCC(n2cnc3cnc(Nc4ccc(N5CCN(C)CC5)c(F)c4)nc32)C1` (stereo not shown) [Example A009, 1-(3-(2-((3-fluoro-4-(4-methylpiperazin-1-yl)phenyl)amino)-9H-purin-9-yl)piperidin-1 yl)prop-2-en-1-one]: the values for the IC50 in assay [1], in assay [2] and in assay [3] were greater than 100 nM, greater than 100 nM and less than 100 nM, respectively. Also, in assay [3], the inhibition at 0.1 µM was greater than 50%.
For `C=CC(=O)N1CCC(n2cnc3cnc(Nc4ccc(N5CCN(C)CC5)c(F)c4)nc32)C1` (stereo not shown) [Example A004, 1-(3-(2-((3-Fluoro-4-(4-methylpiperazin-1-yl)phenyl)amino)-9H-purin-9-yl)pyrrolidin-1-yl)prop-2-en-1-one], the inhibition at 0.1 µM in assay [3] was greater than 50%.
`C=CC(=O)N1CCCC(n2cnc3cnc(Nc4ccc(N5CCN(CCO)CC5)c(F)c4)nc32)C1` (stereo not shown) [Example A012]: the results for the inhibition at 0.1 µM in assay [1], in assay [2] and in assay [3] were less than 50%, less than 50% and greater than 50%, respectively.
For the compound `C=CC(=O)N1CCC(n2cnc3cnc(Nc4ccc(N5CCN(C)CC5)c(F)c4F)nc32)C1` (stereo not shown) [Example A011, 1-(3-(2-((2,3-difluoro-4-(4-methylpiperazin-1-yl)phenyl)amino)-9H-purin-9-yl)pyrrolidin-1-yl)prop-2-en-1-one], the inhibition at 0.1 µM in assay [1], in assay [2] and in assay [3] was less than 50% throughout.
Consider `C=CC(=O)Nc1cccc(-n2cnc3cnc(Nc4ccc(N5CCN(CCO)CC5)cc4)nc32)c1` [Example A015, N-(3-(2-((4-(4-(2-hydroxyethyl)piperazin-1-yl)phenyl)amino)-9H-purin-9-yl)phenyl)acrylamide], for which the inhibition at 0.1 µM in assay [1] was less than 50%; in assay [2] it was less than 50%; in assay [3] it was greater than 50%.
As for `C=CC(=O)N1CCCC(n2cnc3cnc(Nc4ccc(N5CCN(C)CC5)c(F)c4F)nc32)C1` (stereo not shown) [Example A023, 1-(3-(2-((2,3-difluoro-4-(4-methylpiperazin-1-yl)phenyl)amino)-9H-purin-9-yl)piperidin-1-yl)prop-2-en-1-one], the inhibition at 0.1 µM in assay [1], in assay [2] and in assay [3] was less than 50% each time.
Take `C=CC(=O)N1CCC(n2cnc3cnc(Nc4ccc(N5CCN(CCO)CC5)c(F)c4F)nc32)C1` (stereo not shown) [Example A022]: the inhibition at 0.1 µM in assay [1], in assay [2] and in assay [3] was less than 50% in each case.
In the case of `C=CC(=O)Nc1cccc(-n2cnc3cnc(Nc4ccc(N5CCN(C)CC5)cc4F)nc32)c1` [Example A021, N-(3-(2-((2-fluoro-4-(4-methylpiperazin-1-yl)phenyl)amino)-9H-purin-9-yl)phenyl)acrylamide], the inhibition at 0.1 µM in assay [1], in assay [2] and in assay [3] was less than 50% in each case.
As to `C=CC(=O)Nc1cccc(-n2cnc3cnc(Nc4ccc(N5CCN(CCO)CC5)cc4F)nc32)c1` [Example A003, N-(3-(2-((2-fluoro-4-(4-(2-hydroxyethyl)piperazin-1-yl)phenyl)amino)-9H-purin-9-yl)phenyl)acrylamide], the inhibition at 0.1 µM in assay [3] was less than 50%.
On the same count and under the same terms, under `C=CC(=O)N1CCC(n2cnc3cnc(Nc4ccc(N5CCN(C)CC5)cc4)nc32)C1` (stereo not shown) [Example A005, 1-(3-(2-((4-(4-methylpiperazin-1-yl)phenyl)amino)-9H-purin-9-yl)pyrrolidin-1-yl)prop-2-en-1-one] stands greater than 50%; under `C=CC(=O)N1CCC(n2cnc3cnc(Nc4ccc(N5CCN(CCO)CC5)cc4)nc32)C1` (stereo not shown) [Example A006, 1-(3-(2-((4-(4-(2-hydroxyethyl)piperazin-1-yl)phenyl)amino)-9H-purin-9-yl)pyrrolidin-1-yl)prop-2-en-1-one], greater than 50%.

A word on the inhibition: it is the drop in the measured response relative to a control, in per cent. As a reminder, the IC50 is the midpoint of a concentration-inhibition curve.

The values above are taken from patent US10947201B2, “Certain chemical entities, compositions, and methods” (NEUPHARMA, INC., priority 2015, dated 2021).
